From US12426614B2, “Lentinula edodes-derived saltiness enhancing peptide, method for preparing the same and use thereof” (Shanghai Academy of Agricultural Sciences, priority 2023, dated 2025)

Assays:
[1] = system: sensory evaluation team; assay: Saltiness threshold analysis by triangle test method; format: in vivo; conditions: serial 1:1 dilution from 1.0 mg/mL; for saltiness threshold: NaCl as positive control
Procedure: The threshold analysis was conducted by triangle test method. […] A mass concentration of the penultimate solution was recorded as the salinity threshold for the synthetic peptide.

[2] = Electronic tongue saltiness measurement of peptide / NaCl solutions
Procedure: In order to understand the flavor characteristics of DIQPEER synthetic peptide solutions of different concentrations in NaCl solutions of different concentrations, 0.5 g/L, 1.0 g/L, 1.5 g/L, and 2.0 g/L DIQPEER synthetic peptide aqueous solutions were added into 3.5 g/L, 3.0 g/L, 2.5 g/L, and 2.0 g/L NaCl solutions, respectively, for electronic tongue measurement.
As the concentration of synthetic peptides increased, the concentration of NaCl solution decreased and the saltiness enhancing effect weakened. Without affecting the overall solution taste, DIQPEER could replace about 50% of NaCl compared to the saltiness value of 4.0 g/L NaCl solution.

| Molecule | saltiness threshold [1] [mM] | saltiness intensity of peptide aqueous solutions ([2]; 0.5, 1.0, 1.5 and 2.0 g/L DIQPEER, FIG. 7) | salinity of the solution (synergy with NaCl) ([2]; 1.0 g/L synthetic peptide added to 3.0 g/L NaCl solution, FIG. 8) | saltiness enhancement (increase of saltiness value) ([2]; 1.0 g/L synthetic peptide added to 3.0 g/L NaCl solution, compared with saltiness value of 4.0 g/L NaCl solution) [%] | share of NaCl that can be replaced ([2]; compared to the saltiness value of 4.0 g/L NaCl solution) | Threshold ([1]; saltiness threshold) [mmol/L] |
| --- | --- | --- | --- | --- | --- | --- |
| [Cl-].[Na+] [NaCl, reference compound] | 1.07 | – | – | – | – | – |
| DIQPEER | 0.282 | saltiness intensity increased with the increase of the concentration | increased significantly | 69.59 | about 50% | 0.282 |
